Test results: US20060079512A1, “Dibenzodiazepinone analogues, processes for their production and their use as pharmaceuticals” (Ecopia BioSciences, Inc., priority 2003, published 2006)
Where two headings read alike, the source gives them in different places.

Tests used:
Format in all cases: cell-based
[1] = tested on: HT-29, SF-268, PC-3, MDA-MB-231; test: Average GI50 over the four cell lines, method (a); conditions: read-out: Average (GI50 μM)
Procedure: (§1) Compounds were dissolved at 10 mM in DMSO. Dilution in vehicle to concentrations of 30, 10, 3, 1 and 0.3 μM were prepared immediately before assays. Depending on the cell line's growth characteristics, 4000-10000 cells were plated in two 96-wells pates (day 0) and incubated for 16 hours. The following day, propidium iodide was added to one of the two plates and fluorescence measured (Tz). Test compounds were added to the second plate, as well as vehicle control, and cells further incubated for 96 hours. Each compound was tested at each concentration and in triplicates. The equivalent cell number was determined after adding propidium iodide by measuring the signal by fluorescence (C for control).

[2] = tested on: PC-3 (prostate adenocarcinoma); test: In vitro cytotoxic activity (GI50), method (a), propidium iodide; conditions: read-out: PC-3 (GI50 μM)
Procedure: as §1

[3] = tested on: HT-29 (colorectal carcinoma); test: as above; conditions: Homo sapiens, read-out: HT-29 (GI50 μM)
Procedure: as §1

SF268 (CNS) = test: as above; conditions: Homo sapiens, read-out: SF-268 (GI50 μM)
Procedure: as §1

[4] = tested on: MDA-MB-231 (mammary gland adenocarcinoma); test: as above; conditions: Homo sapiens, read-out: MDA-MB-231 (GI50 μM)
Procedure: as §1

Row | SMILES | GI50 ([1]; method (a), values > 30 not considered) [µM] | GI50 ([2]; method (a), 96 hours) [µM] | GI50 ([3]; HT-29, method (a), 96 hours) [µM] | GI50 (SF268 (CNS); SF-268, method (a), 96 hours) [µM] | GI50 ([4]; MDA-MB-231, method (a), 96 hours) [µM] | GI50 [1] [µM] | GI50 ([2]; 96 h) [µM] | GI50 ([3]; HT-29, 96 h) [µM] | GI50 (SF268 (CNS); SF-268, 96 h) [µM] | GI50 ([4]; MDA-MB-231, 96 h) [µM]
1 | CC(C)=CCC/C(C)=C/CC/C(C)=C/CN1C(=O)c2cccc(O)c2N(Cc2ccccc2)c2c(O)cc(O)cc21 [Compound 3, 5-benzyl-10-farnesyl-4,6,8-trihydroxy-5,10-dihydro-dibenzo[b,e][1,4]diazepin-11-one] | 6.18 | 5.36 | 7.3 | 5.73 | 6.32 | – | – | – | – | –
2 | CC(=O)Oc1cccc2c1Nc1c(OC(C)=O)cc(O)cc1N(CC=C(C)CCC=C(C)CCC=C(C)C)C2=O [Compound 10, 4,6-diacetoxy-10-farnesyl-8-hydroxy-5,10-dihydro-dibenzo[b,e][1,4]diazepin-11-one] | – | – | – | – | – | 4.48 | 1.35 | 13 | 2.02 | 1.55
